Assay results from ChEMBL document CHEMBL1201862, “PubChem BioAssay data set” (2004).
Activity calls are given as the source filed them.

Columns and labels:
[1] = Counterscreen for activators of the function of SWI/SNF related, matrix associated, actin dependent regulator of chromatin, subfamily a, member 2 (SMARCA2, BRM): Luminescence-based cell-based high throughput dose response assay to identify non-selective compounds using the VP16 reporter assay.; type: functional
[2] = biological target: SWI/SNF-related matrix-associated actin-dependent regulator of chromatin subfamily A member 2 (Homo sapiens, UniProt P51531); experiment: Luminescence-based cell-based high throughput dose response assay to identify activators of the function of SWI/SNF related, matrix associated, actin dependent regulator of chromatin, subfamily a, member 2 (SMARCA2, BRM).; type: functional
Chain of SWI/SNF-related matrix-associated actin-dependent regulator of chromatin subfamily A member 2 (P51531 whole entry): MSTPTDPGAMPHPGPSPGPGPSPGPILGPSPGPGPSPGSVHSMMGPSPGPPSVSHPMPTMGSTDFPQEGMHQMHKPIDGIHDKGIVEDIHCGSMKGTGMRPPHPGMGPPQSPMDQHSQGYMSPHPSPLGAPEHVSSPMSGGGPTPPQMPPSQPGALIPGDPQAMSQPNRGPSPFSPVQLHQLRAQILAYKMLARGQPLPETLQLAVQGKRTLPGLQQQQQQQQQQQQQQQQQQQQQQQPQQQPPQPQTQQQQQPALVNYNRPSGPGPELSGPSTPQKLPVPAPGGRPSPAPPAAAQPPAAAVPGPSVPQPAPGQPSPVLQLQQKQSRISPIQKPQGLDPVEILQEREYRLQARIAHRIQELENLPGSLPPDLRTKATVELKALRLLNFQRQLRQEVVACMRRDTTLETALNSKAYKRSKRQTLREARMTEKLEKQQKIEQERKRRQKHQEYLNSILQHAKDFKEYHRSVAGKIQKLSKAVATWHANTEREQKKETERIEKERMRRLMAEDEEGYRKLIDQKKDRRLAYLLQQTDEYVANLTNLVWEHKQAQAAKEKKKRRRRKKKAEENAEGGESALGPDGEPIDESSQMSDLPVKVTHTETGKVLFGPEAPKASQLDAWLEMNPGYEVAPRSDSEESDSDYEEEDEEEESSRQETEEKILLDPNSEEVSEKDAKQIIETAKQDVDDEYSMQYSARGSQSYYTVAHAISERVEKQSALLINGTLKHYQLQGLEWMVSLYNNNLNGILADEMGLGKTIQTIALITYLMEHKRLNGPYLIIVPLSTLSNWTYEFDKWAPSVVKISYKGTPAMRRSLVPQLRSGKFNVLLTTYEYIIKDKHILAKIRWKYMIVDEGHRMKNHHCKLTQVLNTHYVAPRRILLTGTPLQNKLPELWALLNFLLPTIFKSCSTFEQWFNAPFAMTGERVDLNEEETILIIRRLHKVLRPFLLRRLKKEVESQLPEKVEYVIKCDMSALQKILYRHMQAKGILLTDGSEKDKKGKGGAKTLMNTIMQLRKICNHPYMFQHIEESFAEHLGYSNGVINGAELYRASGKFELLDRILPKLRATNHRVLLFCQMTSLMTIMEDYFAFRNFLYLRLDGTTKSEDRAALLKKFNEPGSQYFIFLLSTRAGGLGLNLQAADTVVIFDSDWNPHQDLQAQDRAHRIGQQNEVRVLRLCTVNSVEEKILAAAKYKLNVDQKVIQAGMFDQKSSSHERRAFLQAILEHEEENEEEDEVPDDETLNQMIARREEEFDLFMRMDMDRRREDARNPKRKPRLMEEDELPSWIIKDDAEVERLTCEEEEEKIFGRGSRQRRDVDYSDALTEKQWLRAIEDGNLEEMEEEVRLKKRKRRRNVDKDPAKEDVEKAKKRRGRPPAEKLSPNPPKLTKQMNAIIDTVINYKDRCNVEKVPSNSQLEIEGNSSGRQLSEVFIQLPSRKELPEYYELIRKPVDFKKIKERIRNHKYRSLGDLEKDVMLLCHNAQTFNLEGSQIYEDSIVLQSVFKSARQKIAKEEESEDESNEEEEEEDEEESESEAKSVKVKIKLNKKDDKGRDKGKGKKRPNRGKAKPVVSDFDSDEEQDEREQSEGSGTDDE

[3] = alpha-synuclein stem-loop luciferase translation blockers – H4 neuroglioma cells, luminescence, confirmation (AID 1988); type: functional, cell-based
[4] = system: Streptococcus sp. 'group A'; experiment: Streptococcus pyogenes SK(-)GAS viability under kanamycin – luminescence, BacTiterGlo, confirmation, counter-screen for streptokinase expression inhibitor project, dose response (AID 1900); type: functional, organism-based
HEK293 [5] = experiment: EBV LMP1 TES2 canonical NF-kB signalling blockers – cell-based, HEK293, luciferase, cherry-pick, dose response (AID 588343); type: functional; conditions: Homo sapiens
Streptococcus = experiment: GAS UMAA2166 growth inhibition – luminescence, BacTiterGlo, counter-screen for streptokinase expression inhibitor project, dose response (AID 1915); type: functional, organism-based;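 note: potency for reduction of bacterial viability or growth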
[6] = luciferase reporter signal suppression in cells – H4 neuroglioma cells, luminescence, dose response (AID 1990); type: functional, cell-based
Nonstructural protein 1 = Nonstructural protein 1 (Influenza A virus, UniProt Q194T2); type: functional, Influenza A virus (A/California/07/2009(H1N1))
Chain of Nonstructural protein 1 (Q194T2 whole entry): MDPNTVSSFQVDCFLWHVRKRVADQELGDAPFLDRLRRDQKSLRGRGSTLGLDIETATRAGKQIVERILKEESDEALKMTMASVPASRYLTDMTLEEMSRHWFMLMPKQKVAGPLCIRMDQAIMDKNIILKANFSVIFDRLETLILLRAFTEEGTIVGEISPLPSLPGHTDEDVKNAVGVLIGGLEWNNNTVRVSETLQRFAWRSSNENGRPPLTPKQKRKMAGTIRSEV

[7] = Luminescence Cell-Based Dose Response HTS to Identify Inhibitors of 5'UTR Stem-Loop Driven Prion Protein mRNA Translation in H4 Neuroglioblastoma Cells. [Related pubchem assays: 1827 (Project Summary), 1813 (Primary HTS)]; type: functional
[8] = biological target: T1, Heat shock factor protein 1 (Mus musculus, UniProt P38532); experiment: enhancement of HSF1-driven luciferase signal – cell-based, NIH3T3, luminescence, dose retest, confirmation (AID 435004); type: functional;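 note: stress induced by proteasome inhibitor MG132 added 30 min after compound; luciferase reporter driven by HSF1 response element in NIH3T3 cells; actives raise luminescence as potentiators of the MG132 stress response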
T1 sequence (P38532 whole entry): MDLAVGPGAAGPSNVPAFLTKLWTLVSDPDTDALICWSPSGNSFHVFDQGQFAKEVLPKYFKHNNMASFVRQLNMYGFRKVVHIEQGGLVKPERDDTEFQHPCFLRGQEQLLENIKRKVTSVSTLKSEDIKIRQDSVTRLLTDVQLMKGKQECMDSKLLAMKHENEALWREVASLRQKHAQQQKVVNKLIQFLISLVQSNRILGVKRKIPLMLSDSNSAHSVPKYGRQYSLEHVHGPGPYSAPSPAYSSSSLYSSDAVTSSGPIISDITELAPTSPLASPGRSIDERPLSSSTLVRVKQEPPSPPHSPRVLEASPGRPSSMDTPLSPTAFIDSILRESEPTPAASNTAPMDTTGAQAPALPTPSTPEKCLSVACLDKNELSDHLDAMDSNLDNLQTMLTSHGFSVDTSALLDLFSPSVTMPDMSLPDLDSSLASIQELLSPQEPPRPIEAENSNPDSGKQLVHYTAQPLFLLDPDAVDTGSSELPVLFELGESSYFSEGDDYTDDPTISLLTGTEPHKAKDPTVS

[9] = biological target: T2, Lysine-specific demethylase 4C (Homo sapiens, UniProt Q9H3R0); experiment: inhibition of JMJD2C H3K9me3 demethylation – biochemical, DELFIA europium, cherry-picked samples, dose response (AID 488835); type: functional
T2 sequence (Q9H3R0 whole entry): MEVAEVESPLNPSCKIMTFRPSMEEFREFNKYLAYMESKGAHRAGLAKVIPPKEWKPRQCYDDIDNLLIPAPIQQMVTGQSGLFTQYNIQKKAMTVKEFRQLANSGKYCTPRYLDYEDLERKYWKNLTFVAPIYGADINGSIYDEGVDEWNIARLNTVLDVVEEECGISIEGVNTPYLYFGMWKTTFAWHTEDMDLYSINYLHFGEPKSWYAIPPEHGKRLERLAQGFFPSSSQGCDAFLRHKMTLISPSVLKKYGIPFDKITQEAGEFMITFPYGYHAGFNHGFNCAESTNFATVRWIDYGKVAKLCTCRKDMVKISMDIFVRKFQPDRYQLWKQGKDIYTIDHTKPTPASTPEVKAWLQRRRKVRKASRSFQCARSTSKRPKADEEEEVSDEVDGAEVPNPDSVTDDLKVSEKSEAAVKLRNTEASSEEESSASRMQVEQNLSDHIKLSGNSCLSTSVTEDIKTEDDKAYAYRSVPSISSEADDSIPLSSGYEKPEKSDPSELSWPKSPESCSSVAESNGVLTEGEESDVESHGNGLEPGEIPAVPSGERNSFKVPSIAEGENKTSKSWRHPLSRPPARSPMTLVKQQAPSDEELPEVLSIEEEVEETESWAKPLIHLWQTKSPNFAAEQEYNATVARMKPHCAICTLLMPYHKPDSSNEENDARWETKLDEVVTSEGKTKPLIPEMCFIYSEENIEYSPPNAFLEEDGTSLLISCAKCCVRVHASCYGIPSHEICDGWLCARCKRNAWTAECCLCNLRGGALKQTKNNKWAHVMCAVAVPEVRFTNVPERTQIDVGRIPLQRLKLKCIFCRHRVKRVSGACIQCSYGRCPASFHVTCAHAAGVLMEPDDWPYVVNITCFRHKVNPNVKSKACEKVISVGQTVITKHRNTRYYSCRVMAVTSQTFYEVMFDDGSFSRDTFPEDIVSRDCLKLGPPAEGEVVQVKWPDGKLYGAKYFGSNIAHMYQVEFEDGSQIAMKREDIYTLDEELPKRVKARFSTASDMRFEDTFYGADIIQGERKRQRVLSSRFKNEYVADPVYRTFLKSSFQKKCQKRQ

Protein RecA = biological target: T3, Protein RecA (Mycobacterium tuberculosis, UniProt P9WHJ3); experiment: Fluorescence Cell-Free Homogeneous Dose Retest to Identify Inhibitors of RecA-Intein Splicing Activity. [Related pubchem assays (depositor defined):AID2097, AID2223, AID489010, AID492950]; type: functional
T3 sequence (P9WHJ3 whole entry): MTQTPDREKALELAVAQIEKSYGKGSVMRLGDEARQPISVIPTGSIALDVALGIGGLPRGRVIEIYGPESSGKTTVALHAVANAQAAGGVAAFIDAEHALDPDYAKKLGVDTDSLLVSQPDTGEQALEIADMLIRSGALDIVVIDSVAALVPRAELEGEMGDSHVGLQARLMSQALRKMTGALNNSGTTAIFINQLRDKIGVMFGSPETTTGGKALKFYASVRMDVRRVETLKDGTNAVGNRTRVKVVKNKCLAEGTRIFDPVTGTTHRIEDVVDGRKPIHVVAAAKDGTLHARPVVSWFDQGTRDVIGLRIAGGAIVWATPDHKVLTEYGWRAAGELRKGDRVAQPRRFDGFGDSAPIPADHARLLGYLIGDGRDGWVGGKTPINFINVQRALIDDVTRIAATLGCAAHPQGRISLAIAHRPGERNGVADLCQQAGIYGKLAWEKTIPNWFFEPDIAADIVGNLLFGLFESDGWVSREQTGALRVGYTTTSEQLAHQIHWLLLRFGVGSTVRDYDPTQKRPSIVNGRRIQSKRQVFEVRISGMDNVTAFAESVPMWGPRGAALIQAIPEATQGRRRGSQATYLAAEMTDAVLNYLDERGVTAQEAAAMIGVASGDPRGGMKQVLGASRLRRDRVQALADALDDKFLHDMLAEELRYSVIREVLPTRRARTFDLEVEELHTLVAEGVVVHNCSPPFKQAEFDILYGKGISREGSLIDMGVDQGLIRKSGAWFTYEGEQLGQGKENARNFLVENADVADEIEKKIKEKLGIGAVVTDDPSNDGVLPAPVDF

[10] = biological target: T4, Replicative DNA helicase DnaB (Mycobacterium tuberculosis, UniProt P9WMR3); experiment: DnaB intein splicing inhibitors, dose response, biochemical, cell-free fluorescence (AID 449749); type: functional
T4 sequence (P9WMR3 whole entry): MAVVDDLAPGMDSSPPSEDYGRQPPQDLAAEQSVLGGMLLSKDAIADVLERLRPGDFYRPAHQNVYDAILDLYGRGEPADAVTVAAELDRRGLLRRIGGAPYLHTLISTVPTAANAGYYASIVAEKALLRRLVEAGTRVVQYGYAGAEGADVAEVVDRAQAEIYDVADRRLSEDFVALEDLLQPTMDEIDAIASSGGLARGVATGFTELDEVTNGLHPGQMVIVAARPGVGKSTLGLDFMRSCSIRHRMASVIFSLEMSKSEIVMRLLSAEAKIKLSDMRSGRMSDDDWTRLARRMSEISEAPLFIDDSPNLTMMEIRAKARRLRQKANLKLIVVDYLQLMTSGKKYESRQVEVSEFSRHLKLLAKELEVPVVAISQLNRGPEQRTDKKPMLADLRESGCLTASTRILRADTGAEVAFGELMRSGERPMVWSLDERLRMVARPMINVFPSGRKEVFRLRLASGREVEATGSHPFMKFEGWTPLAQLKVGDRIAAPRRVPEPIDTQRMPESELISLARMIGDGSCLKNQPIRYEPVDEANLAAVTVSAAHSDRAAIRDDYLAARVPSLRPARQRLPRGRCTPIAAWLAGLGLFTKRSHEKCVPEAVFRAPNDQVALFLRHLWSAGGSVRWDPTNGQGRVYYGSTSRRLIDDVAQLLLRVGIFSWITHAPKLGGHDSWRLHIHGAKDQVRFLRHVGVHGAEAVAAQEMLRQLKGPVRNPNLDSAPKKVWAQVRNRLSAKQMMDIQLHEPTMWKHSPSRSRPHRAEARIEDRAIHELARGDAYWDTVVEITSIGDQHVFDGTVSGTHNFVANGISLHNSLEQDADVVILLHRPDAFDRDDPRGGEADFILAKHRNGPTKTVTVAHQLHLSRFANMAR

[11] = Luminescence Cell-Based Dose Confirmation HTS to Identify Inhibitors of Platelet Dense Granule Release. [Related pubchem assays: 1663 (Primary HTS), 1678 (Summary of Project)]; type: functional
[12] = biological target: Luciferin 4-monooxygenase (Photinus pyralis, UniProt P08659); experiment: inhibition of purified Photinus pyralis luciferase – biochemical, luminescence, dose response (AID 1891)
Chain of Luciferin 4-monooxygenase (P08659 whole entry): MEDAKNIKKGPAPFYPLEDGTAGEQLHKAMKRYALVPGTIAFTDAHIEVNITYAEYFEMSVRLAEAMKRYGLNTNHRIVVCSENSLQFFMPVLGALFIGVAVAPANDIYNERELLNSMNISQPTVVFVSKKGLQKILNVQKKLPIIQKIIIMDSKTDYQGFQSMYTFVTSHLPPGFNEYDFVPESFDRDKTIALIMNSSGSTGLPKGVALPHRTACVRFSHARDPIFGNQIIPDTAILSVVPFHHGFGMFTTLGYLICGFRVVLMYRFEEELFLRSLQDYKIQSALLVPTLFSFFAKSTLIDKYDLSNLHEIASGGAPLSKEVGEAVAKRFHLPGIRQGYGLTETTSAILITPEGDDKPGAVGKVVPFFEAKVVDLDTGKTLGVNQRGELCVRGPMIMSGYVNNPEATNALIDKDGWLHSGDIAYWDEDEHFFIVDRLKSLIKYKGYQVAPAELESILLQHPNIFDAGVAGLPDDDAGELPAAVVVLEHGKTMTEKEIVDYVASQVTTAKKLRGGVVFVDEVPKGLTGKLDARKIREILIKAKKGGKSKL

[13] = biological target: Heat shock protein HSP 90-alpha (Homo sapiens, UniProt P07900); type: functional, organism-based
HEK293 [14] = experiment: inhibition of NOD1-driven NF-kB reporter – cell-based, luminescence, uHTS, primary screen (AID 1578); type: functional; conditions: Homo sapiens
HEK293 [15] = experiment: NOD2 signaling inhibitors in MDP-stimulated cells, cell-based, uHTS, luminescence (AID 2001); type: functional; conditions: Homo sapiens
Streptokinase A = biological target: T5, Streptokinase A (Streptococcus pyogenes serotype M1, UniProt P10520); experiment: viability-normalized secreted streptokinase activity reduction – plasminogen activation absorbance, OD405, dose response (AID 1914); type: functional, Streptococcus pyogenes M1 GAS;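 note: secreted streptokinase activity via plasminogen activation per viability signal from cell pellet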
T5 sequence (P10520 whole entry): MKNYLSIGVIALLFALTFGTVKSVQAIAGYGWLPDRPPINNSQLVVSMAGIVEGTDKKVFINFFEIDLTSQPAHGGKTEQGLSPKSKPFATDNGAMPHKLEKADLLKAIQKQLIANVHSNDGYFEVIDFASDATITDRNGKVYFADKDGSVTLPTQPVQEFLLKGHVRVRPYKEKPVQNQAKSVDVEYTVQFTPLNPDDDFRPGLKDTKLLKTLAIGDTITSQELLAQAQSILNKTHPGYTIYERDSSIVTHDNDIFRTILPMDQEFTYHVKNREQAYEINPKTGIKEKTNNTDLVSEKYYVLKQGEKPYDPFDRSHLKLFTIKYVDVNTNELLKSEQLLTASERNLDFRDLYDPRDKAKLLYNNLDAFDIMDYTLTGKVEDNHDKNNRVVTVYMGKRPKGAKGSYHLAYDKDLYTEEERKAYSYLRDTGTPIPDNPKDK

HEK293 [16] = experiment: cells; type: functional, cell-based; conditions: Homo sapiens
HEK293 [17] = experiment: cells; type: functional, cell-based; conditions: Homo sapiens; remark: listed apart in the source

## COc1cccc(C(=O)COC(=O)c2cccs2)c1
[1]
  EC50: > 91.1 µM (inactive)
[2]
  EC50: > 91.1 µM (inactive)

## CCOC(=O)c1sc(NC(=O)CNCc2ccccn2)c(C(=O)OCC)c1C
[3]
  EC50: 8.92 µM (active)
[4]
  EC50: 0.195 µM (active)
HEK293 [5]
  AC50: 2.35 µM (active)
Streptococcus
  EC50: 5.05 µM (active)
[6]
  EC50: 11.7 µM (active)
Nonstructural protein 1
  IC50: 8.76 µM (active)
[7]
  EC50: 9.71 µM (active)

## COc1ccccc1/C=C1/SC(=S)N(C(C)C(=O)NC2C=CS(=O)(=O)C2)C1=O (centres undefined)
[8]
  EC50: 57.9 µM (active)
[9]
  AC50: > 60 µM (inactive)

## CC(C)c1c(CN(C)C(C)Cc2ccccc2)n(C)n(-c2ccccc2)c1=O (centres undefined) [FAMPROFAZONE]
HEK293 [5]
  AC50: 292 µM (active)

## Cc1cc(C)n2nc(CNS(=O)(=O)c3c(F)c(F)c(F)c(F)c3F)nc2n1
[1]
  EC50: > 91.2 µM (inactive)
Protein RecA
  EC50: 10.8 µM (active)
[2]
  EC50: > 91.2 µM (inactive)
[10]
  AC50: 38.5 µM (active)

## Cc1nnc2c(N(C)S(=O)(=O)c3ccccc3)nc3ccccc3n12
[1]
  EC50: > 91.2 µM (inactive)
[2]
  EC50: > 91.2 µM (inactive)
[11]
  EC50: > 112 µM (not active)
[12]
  EC50: > 112 µM (not active)

## CCc1sc(C(=O)Nc2nc(-c3ccccn3)cs2)cc1C
[13]
  AC50: 7.91 µM (active)
HEK293 [5]
  AC50: 1.33 µM (active)

## O=C(NC(NC(=S)Nc1ccccc1Cl)C(Cl)(Cl)Cl)c1cccc(Cl)c1 (centres undefined)
HEK293 [14]
  EC50: > 20 µM (inactive)
HEK293 [15]
  IC50: 3.78 µM (active)
Streptokinase A
  EC50: 5.81 µM (active)
HEK293 [16]
  IC50: 3.72 µM (active)
[4]
  EC50: 2.05 µM (active)
HEK293 [17]
  IC50: 11.5 µM (active)
Streptococcus
  EC50: 3.79 µM (active)
